According to publication PMC11350587, “Screening Privileged Alkyl Guanidinium Motifs under Host-Mimicking Conditions Reveals a Novel Antibiotic with an Unconventional Mode of Action” (JACS Au, 2024):

Key:
Type in all cases: cell-based
[1] = target: signal peptidase IB (SpsB) (Staphylococcus aureus, UniProt P0A070, Q165A); test: enzyme turnover assay with SpsB mutant (activation retained)
[2] = target: signal peptidase IB (SpsB) (Staphylococcus aureus, UniProt P0A070); test: FRET substrate cleavage assay with membrane-bound SpsB (activation); supported by competition of photoprobe labelling in cells and loss of activation in pocket mutants
[3] = target: T1, signal peptidase IB (SpsB) (Staphylococcus aureus, UniProt P0A070); test: FRET substrate cleavage assay with SpsB (activation)
T1 sequence (P0A070 1-191): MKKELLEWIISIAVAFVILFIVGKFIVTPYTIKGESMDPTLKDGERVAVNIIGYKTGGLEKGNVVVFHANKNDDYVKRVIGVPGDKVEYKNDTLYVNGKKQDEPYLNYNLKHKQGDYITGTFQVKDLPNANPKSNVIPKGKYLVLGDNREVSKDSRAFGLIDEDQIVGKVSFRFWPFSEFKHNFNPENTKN

| Structure (SMILES) | enzyme turnover assay with SpsB mutant (activation retained) [1] | % [2] | FRET substrate cleavage assay with SpsB (activation) [3] |
| --- | --- | --- | --- |
| N=C(N)NCc1ccc(-c2ccc(Br)cc2)o1 [L15] | while Q165A, a control mutation that does not affect binding, still showed activation | ~ 150% | – |
| NCc1ccc(-c2ccc(Br)cc2)o1 [D14] | – | – | Further structural derivatives (D10, D14, and D16) also showed SpsB activation in the FRET assay |
| Nc1nccn1Cc1ccc(-c2ccc(Br)cc2)o1 [D16] | – | – | Further structural derivatives (D10, D14, and D16) also showed SpsB activation in the FRET assay |
| N=C(N)NCc1ccc(-c2ccc(Br)cc2)s1 [D10] | – | – | Further structural derivatives (D10, D14, and D16) also showed SpsB activation in the FRET assay |
